Where a name gives a salt, the structure may show the parent alone.
What was measured:
calcium channel = molecular target: T1, calcium channel (Cavia porcellus, UniProt A0A286X7I0); assay: Bond to the calcium channel: displacement of the specific (S)-^3H-devapamil bond in membrane preparations of guinea pig skeletal muscle; assay type: binding; details: guinea pig skeletal muscle membranes; 1 nM (S)-^3H-devapamil; 60 minutes, room temperature; 10^-10 to 10^-6 M test substance
T1 construct: membrane preparations of guinea pig skeletal muscle; from tissue; host or cells: guinea pig skeletal muscle, membrane preparation
Protocol: (a) Bond to the calcium channel Displacement of the specific (S)-^3 H-devapamil bond in membrane preparations of guinea pig skeletal muscle
(§1) Membrane homogenate was incubated for 60 minutes at room temperature with increasing concentrations (from 10^-10 to 10^-6 M) of test substance and a fixed concentration of 1 nM of radioligand ((S)-^3 H-devapamil or ^3 H-ketanserine). The bound and the free radioligand were separated by filtration over a glass fiber filter, and the amount of radioligand retained on the filter was determined by liquid scintillation measurement. 2 tests with 3 batches were carried out.
(§2) The competition constants (Ki values in nM) were calculated by nonlinear regression analysis on an IBM computer using the program Ligand from Munson and Rodbard (Analytical Biochemistry 107 (1980), 220).

serotonin-S2-receptor = molecular target: T2, serotonin-S2-receptor (Rattus norvegicus, UniProt P14842); assay: Bond to the serotonin-S2-receptor: displacement of the specific ^3H-ketanserine bond in membrane preparations of cerebral cortex of the rat; assay type: binding; details: rat cerebral cortex membranes; 1 nM ^3H-ketanserine; 60 minutes, room temperature; 10^-10 to 10^-6 M test substance
T2 construct: membrane preparations of cerebral cortex of the rat; from tissue; host or cells: rat cerebral cortex, membrane preparation
Protocol: (b) Bond to the serotonin-S2 -receptor
Displacement of the specific ^3 H-ketanserine bond in membrane preparations of cerebral cortex of the rat
as §1, §2

T2 sequence (P14842 whole entry): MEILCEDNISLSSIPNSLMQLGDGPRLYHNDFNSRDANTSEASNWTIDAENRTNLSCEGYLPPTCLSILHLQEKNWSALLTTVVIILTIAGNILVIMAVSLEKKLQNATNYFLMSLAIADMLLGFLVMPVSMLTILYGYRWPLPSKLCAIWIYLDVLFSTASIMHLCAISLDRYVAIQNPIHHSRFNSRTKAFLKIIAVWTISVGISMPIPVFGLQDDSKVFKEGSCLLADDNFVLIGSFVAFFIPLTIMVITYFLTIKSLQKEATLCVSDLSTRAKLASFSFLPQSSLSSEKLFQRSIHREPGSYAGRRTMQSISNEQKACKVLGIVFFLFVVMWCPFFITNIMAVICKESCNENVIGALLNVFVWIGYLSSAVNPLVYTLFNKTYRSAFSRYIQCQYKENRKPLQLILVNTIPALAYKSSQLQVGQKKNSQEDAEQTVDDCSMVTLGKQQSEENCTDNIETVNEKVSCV
T1 sequence (A0A286X7I0 1-1867): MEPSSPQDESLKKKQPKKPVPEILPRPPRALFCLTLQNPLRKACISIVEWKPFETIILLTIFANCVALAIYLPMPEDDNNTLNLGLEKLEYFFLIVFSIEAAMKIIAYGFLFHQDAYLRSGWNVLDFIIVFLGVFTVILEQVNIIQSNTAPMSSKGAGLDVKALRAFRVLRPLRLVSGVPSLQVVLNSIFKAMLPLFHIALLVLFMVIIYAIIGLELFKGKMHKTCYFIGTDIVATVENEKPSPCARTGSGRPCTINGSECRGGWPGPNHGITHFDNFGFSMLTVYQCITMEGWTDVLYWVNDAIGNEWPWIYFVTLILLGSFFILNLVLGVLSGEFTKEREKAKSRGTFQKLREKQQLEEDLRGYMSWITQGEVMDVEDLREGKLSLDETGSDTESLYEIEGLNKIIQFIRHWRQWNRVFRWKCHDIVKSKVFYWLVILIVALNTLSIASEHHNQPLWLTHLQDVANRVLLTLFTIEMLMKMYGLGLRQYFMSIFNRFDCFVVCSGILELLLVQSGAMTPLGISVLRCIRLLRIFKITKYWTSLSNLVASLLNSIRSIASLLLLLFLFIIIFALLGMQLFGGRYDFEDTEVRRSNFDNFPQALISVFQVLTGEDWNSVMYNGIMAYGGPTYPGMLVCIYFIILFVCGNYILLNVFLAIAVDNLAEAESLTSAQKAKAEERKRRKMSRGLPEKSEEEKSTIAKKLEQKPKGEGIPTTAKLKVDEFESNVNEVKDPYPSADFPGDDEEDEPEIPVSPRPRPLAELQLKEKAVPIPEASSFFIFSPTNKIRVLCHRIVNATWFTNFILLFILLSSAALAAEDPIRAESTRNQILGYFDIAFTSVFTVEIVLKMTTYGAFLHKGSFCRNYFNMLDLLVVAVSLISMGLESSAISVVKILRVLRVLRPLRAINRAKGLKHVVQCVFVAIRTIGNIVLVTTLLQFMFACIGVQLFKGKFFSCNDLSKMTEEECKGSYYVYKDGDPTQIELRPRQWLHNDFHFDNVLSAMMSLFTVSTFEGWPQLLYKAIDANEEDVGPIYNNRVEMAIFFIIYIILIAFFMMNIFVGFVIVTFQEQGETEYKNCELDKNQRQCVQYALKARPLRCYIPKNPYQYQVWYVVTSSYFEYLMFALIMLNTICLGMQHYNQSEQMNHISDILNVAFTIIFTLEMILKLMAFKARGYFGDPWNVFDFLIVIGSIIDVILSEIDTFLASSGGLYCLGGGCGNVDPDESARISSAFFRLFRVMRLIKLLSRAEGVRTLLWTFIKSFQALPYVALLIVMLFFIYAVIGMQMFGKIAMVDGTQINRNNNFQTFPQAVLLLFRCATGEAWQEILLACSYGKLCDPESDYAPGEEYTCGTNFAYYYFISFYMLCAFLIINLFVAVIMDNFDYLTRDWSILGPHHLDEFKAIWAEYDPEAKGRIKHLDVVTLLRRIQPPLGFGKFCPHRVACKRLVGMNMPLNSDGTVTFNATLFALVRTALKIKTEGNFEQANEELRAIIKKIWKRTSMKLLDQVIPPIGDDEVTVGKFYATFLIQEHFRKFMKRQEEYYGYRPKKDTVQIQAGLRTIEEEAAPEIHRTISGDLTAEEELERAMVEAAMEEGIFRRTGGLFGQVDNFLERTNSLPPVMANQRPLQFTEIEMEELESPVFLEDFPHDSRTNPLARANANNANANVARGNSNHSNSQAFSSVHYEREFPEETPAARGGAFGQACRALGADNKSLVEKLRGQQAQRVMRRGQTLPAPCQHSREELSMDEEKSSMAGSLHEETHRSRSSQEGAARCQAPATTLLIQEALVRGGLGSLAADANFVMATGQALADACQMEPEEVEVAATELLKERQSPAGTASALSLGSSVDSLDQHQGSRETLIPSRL

| SMILES | Ki (calcium channel) | Ki (serotonin-S2-receptor) |
| --- | --- | --- |
| CCOc1cc(OCC)cc(C(C#N)(CCCN(C)CCC2CCCCC2)C(C)C)c1 (stereo not drawn) [Example 5, 5-[N-methyl-N-(2-cyclohexyl)-ethyl]-amino-2-(3,5-diethoxyphenyl)-2-isopropylvaleronitrile] | 11.9 nM | 20 nM |
| COc1ccc(C(C#N)(CCCN(C)CCC2CCCCC2)C(C)C)c([N+](=O)[O-])c1OC (stereo not drawn) [Example 16, 5-[N-methyl-N-(2-cyclohexyl)ethyl]-amino-2-(2-nitro-3,4-dimethoxyphenyl)-2-isopropylvaleronitrile] | 34.2 nM | 3.6 nM |
| COc1cc(C(C#N)(CCCN(C)CCC2CCCCC2)C(C)C)cc(OC)c1OC (stereo not drawn) [Example 11, 5-[N-methyl-N-(2-cyclohexyl)-ethyl]-amino-2-(3,4,5-trimethoxyphenyl)-2-isopropylvaleronitrile] | 5.8 nM | 10.7 nM |
| CCCCCCN(C)CCCC(C#N)(c1cc(OC)c(OC)c(OC)c1)C(C)C (stereo not drawn) [Example 23, 5-[N-methyl-N-(n-hexyl)]-amino-2-(3,4,5-trimethoxyphenyl)-2-isopropylvaleronitrile hydrochloride] | 11.6 nM | 48.4 nM |
| CCCCCCCCN(C)CCCC(C#N)(c1cc(OC)c(OC)c(OC)c1)C(C)C (stereo not drawn) [Example 4, 5-[N-methyl-N-(n-octyl)]-amino-2-(3,4,5-trimethoxyphenyl)-2-isopropylvaleronitrile] | 5.2 nM | 26.4 nM |
| COc1cc([C@](C#N)(CCCN(C)CCC2CCCCC2)C(C)C)cc(OC)c1OC [Example 13, (S)-5-[N-methyl-N-(2-cyclohexyl)-ethyl]-amino-2-(3,4,5-trimethoxyphenyl)-2-isopropylvaleronitrile hydrochloride] | 3.4 nM | 3.3 nM |
| COc1cccc(C(C#N)(CCCN(C)CCC2CCCCC2)C(C)C)c1 (stereo not drawn) [Example 1, 5-[N-methyl-N-(2-cyclohexyl)-ethyl]-amino-2-(3-methoxyphenyl)-2-isopropylvaleronitrile] | 16.2 nM | 5 nM |
| CCCCCCCCN(C)CCC[C@@](C#N)(c1cc(OC)c(OC)c(OC)c1)C(C)C [Example 6, (S)-5-[N-methyl-N-(n-octyl)]-amino-2-(3,4,5-trimethoxyphenyl)-2-isopropylvaleronitrile] | 2.9 nM | 11.2 nM |
| CCCCC=CCCN(C)CCCC(C#N)(c1cc(OC)c(OC)c(OC)c1)C(C)C (stereo not drawn) [Example 15, 5-[N-methyl-N-(n-octen-3-yl)]-amino-2-(3,4,5-trimethoxyphenyl)-2-isopropylvaleronitrile hydrochloride] | 7.5 nM | 6.8 nM |
| CCCCCCN(C)CCC[C@@](C#N)(c1cc(OC)c(OC)c(OC)c1)C(C)C [Example 24, (S)-5-[N-methyl-N-(n-hexyl)]-amino-2-(3,4,5-trimethoxyphenyl)-2-isopropylvaleronitrile hydrochloride] | 8.6 nM | 21.1 nM |
| CC(C)C(C#N)(CCCN(C)CCC1=CCCCC1)c1ccccc1 (stereo not drawn) [Example 18, 5-(N-methyl-N-[2-(cyclohexen-1-yl)ethyl]}-amino-2-phenyl-2-isopropylvaleronitrile] | 36.7 nM | 4 nM |
| CCCCCCCCCCN(C)CCCC(C#N)(c1cc(OC)c(OC)c(OC)c1)C(C)C (stereo not drawn) [Example 2, 5-[N-methyl-N-(n-decyl)]-amino-2-(3,4,5-trimethoxyphenyl)-2-isopropylvaleronitrile] | 19.1 nM | 21 nM |
| COc1cc(OC)cc(C(C#N)(CCCN(C)CCC2CCCCC2)C(C)C)c1 (stereo not drawn) [Example 10, 5-[N-methyl-N-(2-cyclohexyl)-ethyl]-amino-2-(3,5-dimethoxyphenyl)-2-isopropylvaleronitrile] | 9.2 nM | 2.8 nM |
| COc1ccc(CCN(C)CCCC(C#N)(c2ccc(OC)c(OC)c2)C(C)C)cc1OC (stereo not drawn) [Verapamil, verapamil, reference compound] | – | 177 nM |

From patent US4940780A, “Basically substituted phenylacetonitriles, their preparation and drugs containing these compounds” (BASF Aktiengesellschaft, priority 1986, dated 1990)
